Test results as given in patent US20030096379A1, “Method for producing tryptamine derivatives” (priority 2001, published 2003).
Marks after values point to notes of the source that are not given here.

Columns and labels:
[1] = test system: TrpBA and TDC1; experiment: Coupled enzyme synthesis monitored by HPLC; type: biochemical; details: L-serine, PLP, pH 8.5 phosphate buffer, 37° C.
Experimental: To a solution containing L-serine (25 μmol), pyridoxal phosphate (0.05 μmol) and TrpBA (0.02 to 1.5 units, depending on the substrate), TDC1 (0.2 mL 0.6 units) and KPi buffer (0.05 mmol, pH 7.5) in a volume of 0.8 mL were added […] of 5 mM indole derivative in 20% v/v ethanol/water. The mixture was incubated at 37° C. and aliquots were quenched and analyzed as described for Example 8. In cases where tryptamine and/or tryptophan standards were not available, peaks were collected for mass spectral analysis. Electrospray mass spectral analyses were performed.
Mixtures containing indole, L-serine, PLP and TDC1 were incubated in pH 8.5 phosphate buffer, analyzing aliquots by HPLC, as described in Example 12.
The procedure used in Example 24 was carried out by substituting indole with 2-methylindole, 4-hydroxymethylindole, 5-methoxy-, 5-hydroxymethyl-, 5-methoxycarbonyl, and 5,6-dimethoxyindole.

[2] = biological target: T1, tryptophan decarboxylase TDC2 (Camptotheca acuminata, UniProt P93083); experiment: Substrate screen for tryptophan decarboxylation, TDC2; type: biochemical, C. accuminata; parameters: key: +: a clear ninhydrin-positive spot at the Rf of standard tryptophan derivatives after 16-65 h; (+): a weak spot in the product region; −: no product observed; NR: experiment not run; details: tryptophan derivative, PLP, pH 7.5, 37° C.
T1 construct: made in house; host or cells: E. coli DH5α (pKK233 plasmid from C. Nessler)
T1 sequence (P93083 1-498): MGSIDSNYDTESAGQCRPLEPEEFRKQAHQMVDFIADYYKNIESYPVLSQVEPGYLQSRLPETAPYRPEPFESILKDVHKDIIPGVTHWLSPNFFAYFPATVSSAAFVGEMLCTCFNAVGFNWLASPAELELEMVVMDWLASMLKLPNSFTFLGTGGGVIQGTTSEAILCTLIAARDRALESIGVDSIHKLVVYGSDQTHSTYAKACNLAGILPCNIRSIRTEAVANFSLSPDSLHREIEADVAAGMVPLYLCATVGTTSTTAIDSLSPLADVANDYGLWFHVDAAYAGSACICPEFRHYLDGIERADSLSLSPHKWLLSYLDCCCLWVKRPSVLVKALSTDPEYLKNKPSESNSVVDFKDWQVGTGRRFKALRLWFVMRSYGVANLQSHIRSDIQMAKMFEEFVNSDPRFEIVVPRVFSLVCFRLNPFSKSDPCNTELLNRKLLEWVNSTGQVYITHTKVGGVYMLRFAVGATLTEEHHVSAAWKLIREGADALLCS
Experimental: (§1) A mixture containing 1 μmole of the tryptophan derivative, 0.05 μmole of PLP and 50 μmol of L-serine in 40 mM pH 7.5 KPi buffer was warmed to 37° C., then enzyme solution was added to give a final volume of 1 mL. Aliquots (100 HL) were quenched at intervals and were evaporated in a Savant Speed-vac as in Example 6. For TLC analysis, CH2Cl2/EtOH/H2O/HOAc 49:49:1:1 was used as the solvent. The plates were visualized with short-wave UV light and ninhydrin as in Example 6.
(§2) HPLC techniques were used to monitor the decarboxylation of substituted tryptophans. Mass spectral analysis of the collected HPLC peaks was used to confirm the identity of several tryptamine derivatives, as shown in Table 5.

[3] = biological target: T2, pig kidney aromatic amino acid decarboxylase (pkAAAD) (Sus scrofa, UniProt P80041); experiment: Substrate screen for tryptophan decarboxylation, pkAAAD; type: biochemical; parameters: key: +: a clear ninhydrin-positive spot at the Rf of standard tryptophan derivatives after 16-65 h; (+): a weak spot in the product region; −: no product observed; NR: experiment not run; details: tryptophan derivative, PLP, pH 7.5, 37° C.
T2 construct: Frozen tissue was partially thawed in lysis buffer, then it was extracted and partially purified; from tissue; host or cells: pig kidney
T2 sequence (P80041 1-486): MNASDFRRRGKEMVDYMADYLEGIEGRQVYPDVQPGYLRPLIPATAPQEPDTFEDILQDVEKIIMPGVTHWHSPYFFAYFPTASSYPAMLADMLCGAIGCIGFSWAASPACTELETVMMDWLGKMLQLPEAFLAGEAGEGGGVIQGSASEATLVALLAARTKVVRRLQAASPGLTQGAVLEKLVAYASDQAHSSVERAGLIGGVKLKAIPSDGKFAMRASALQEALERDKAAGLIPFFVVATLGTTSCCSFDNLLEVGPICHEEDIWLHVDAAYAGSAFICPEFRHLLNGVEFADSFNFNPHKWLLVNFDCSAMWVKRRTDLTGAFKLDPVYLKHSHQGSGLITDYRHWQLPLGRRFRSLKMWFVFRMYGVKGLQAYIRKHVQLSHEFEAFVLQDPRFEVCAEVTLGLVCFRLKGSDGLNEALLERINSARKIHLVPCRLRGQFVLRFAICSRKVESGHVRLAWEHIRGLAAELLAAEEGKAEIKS

[4] = biological target: T3, synAAAD (synthetic gene based on pkAAAD protein sequence) (Sus scrofa, UniProt P80041); experiment: Substrate screen for tryptophan decarboxylation, SynAAAD; type: biochemical; parameters: key: +: a clear ninhydrin-positive spot at the Rf of standard tryptophan derivatives after 16-65 h; (+): a weak spot in the product region; −: no product observed; NR: experiment not run; details: tryptophan derivative, PLP, pH 7.5, 37° C.
T3 construct: made in house; host or cells: E. coli (pET-15 vector)
T3 sequence (P80041 1-486): T2 sequence (P80041 1-486)
Experimental: as §1, §2

[5] = biological target: T4, tryptophan decarboxylase TDC1 (Camptotheca acuminata, UniProt P93082); experiment: Substrate screen for tryptophan decarboxylation, TDC1; type: biochemical, C. accuminata; parameters: key: +: a clear ninhydrin-positive spot at the Rf of standard tryptophan derivatives after 16-65 h; (+): a weak spot in the product region; −: no product observed; NR: experiment not run; details: tryptophan derivative, PLP, pH 7.5, 37° C.
T4 construct: made in house; host or cells: E. coli DH5α (pKK233 plasmid from C. Nessler)
T4 sequence (P93082 1-502): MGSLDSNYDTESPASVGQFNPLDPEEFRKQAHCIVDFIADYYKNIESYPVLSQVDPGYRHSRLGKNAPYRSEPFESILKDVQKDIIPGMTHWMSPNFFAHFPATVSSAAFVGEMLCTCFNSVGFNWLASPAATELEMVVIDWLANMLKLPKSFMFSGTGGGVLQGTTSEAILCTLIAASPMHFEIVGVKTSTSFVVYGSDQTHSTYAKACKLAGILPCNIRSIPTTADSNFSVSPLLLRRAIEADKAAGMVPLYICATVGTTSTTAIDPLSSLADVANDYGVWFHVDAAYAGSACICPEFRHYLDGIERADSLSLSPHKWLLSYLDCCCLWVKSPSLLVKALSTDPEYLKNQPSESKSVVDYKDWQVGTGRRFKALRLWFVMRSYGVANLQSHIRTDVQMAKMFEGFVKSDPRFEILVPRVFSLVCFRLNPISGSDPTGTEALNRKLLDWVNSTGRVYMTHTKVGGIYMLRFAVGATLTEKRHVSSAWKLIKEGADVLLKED
Experimental: as §1, §2

[6] = biological target: T5, tryptophanase (TnA) (Escherichia coli, UniProt P0A853); type: biochemical, E. coli; parameters: key: +: a clear ninhydrin-positive spot at the Rf of standard tryptophan derivatives after 16-65 h; (+): a weak spot in the product region; −: no product observed; NR: experiment not run; details: indole derivative + L-serine + PLP, 37° C., 16-65 h, ninhydrin
T5 construct: made in house; host or cells: E. coli LMG194 (pBAD) or BL-21 (pET)
Experimental: (§3) A mixture containing 2 μmole of the indole derivative, 0.05 μmole of PLP and 50 μmol of L-serine in 40 mM KPi buffer in 8% v/v ethanol water, pH 7.5, was warmed to 37° C., then enzyme solution was added to give a final volume of 1 mL. Aliquots (100 μL) were quenched at intervals of 2, 6, and 24 hours or more in microcentrifuge capsules containing 25 μL of 6 M HCl. The quenched samples were evaporated in a Savant Speed-vac. The residues were resuspended in methanol/water (1:1, 50 μL) and analyzed by TLC on Silica gel GF254 plates alongside tryptophan and tryptamine standards, eluting with CH2Cl2/EtOH/H2O/HOAc 77:20:2:1. Products were visualized first by using short-wave UV light, then with ninhydrin spray reagent (1/1/98 w/v/v ninhydrin/HOAc/EtOH) followed by heating.
(§4) Substituted indoles were incubated with L-serine, PLP and enzyme (TrpBA or TnA) prior to TLC analysis as generally described in Example 6. Serine, which can be used instead of pyruvate and ammonia for tryptophan synthesis with TnA, was employed as the 3-carbon acid because pyruvate tended to obscure the tryptophan product spots when plates were visualized with ninhydrin. TnA-catalyzed formation of tryptophan was also faster when serine was the 3-carbon donor. Reaction rates for several substrates were also estimated by HPLC.
(§5) In Table 4, “+” indicates a clear ninhydrin-positive spot at the Rf of standard tryptophan derivatives after 16-65 h; “(+)” indicates a weak spot in the product region; “−” means no product observed, “NR” means experiment not run. ESMS=electrospray mass spectrometry. Unless otherwise indicated, the mass value given represents the singly-protonated molecular ion (M+1).

[7] = biological target: T6, TrpBA (Escherichia coli, UniProt P0A879); experiment: Relative rates of tryptophan derivative synthesis by HPLC, TrpBA; type: biochemical, E. coli; details: initial rate estimated by HPLC, indole = 100%, L-serine
T6 construct: made in house; host or cells: E. coli LMG194 (pBAD) or BL-21 (pET)
Experimental: Reaction mixtures were prepared as in Example 6 and were incubated at 37° C. Aliquots (100 μL) were removed and quenched by addition of to 300 μL of 0.5 M sodium citrate, pH 3.0 in 10% v/v acetonitrile/water in 2 ml microcentrifuge tubes. Following centrifugation for 10 min at 13,000×g, the supernatants were passed through 0.45μ membrane filters prior to HPLC analysis of 20 μL of filtrate.
TnA reactions were run with L-serine as the 3-carbon substrate.

[8] = biological target: T7, E. coli DH5α tryptophan synthase (TrpBA) (Escherichia coli, UniProt P0A879); type: biochemical; parameters: key: +: a clear ninhydrin-positive spot at the Rf of standard tryptophan derivatives after 16-65 h; (+): a weak spot in the product region; −: no product observed; NR: experiment not run; details: indole derivative + L-serine + PLP, 37° C., 16-65 h, ninhydrin
T7 construct: made in house; host or cells: E. coli LMG194 (pBAD) or BL-21 (pET)
Experimental: as §3, §4, §5

T6 sequence (P0A879 whole entry): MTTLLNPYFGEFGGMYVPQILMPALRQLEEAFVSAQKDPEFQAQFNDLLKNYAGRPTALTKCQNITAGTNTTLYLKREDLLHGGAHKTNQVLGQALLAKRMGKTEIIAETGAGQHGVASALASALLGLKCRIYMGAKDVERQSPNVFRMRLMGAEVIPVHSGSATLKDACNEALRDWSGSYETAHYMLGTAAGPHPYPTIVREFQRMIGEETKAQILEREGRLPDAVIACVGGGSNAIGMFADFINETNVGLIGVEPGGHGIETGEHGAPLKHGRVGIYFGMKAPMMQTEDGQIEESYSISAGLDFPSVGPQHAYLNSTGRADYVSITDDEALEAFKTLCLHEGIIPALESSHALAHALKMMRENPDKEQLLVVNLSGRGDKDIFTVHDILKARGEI
T6 sequence (P0A877 whole entry, further chain): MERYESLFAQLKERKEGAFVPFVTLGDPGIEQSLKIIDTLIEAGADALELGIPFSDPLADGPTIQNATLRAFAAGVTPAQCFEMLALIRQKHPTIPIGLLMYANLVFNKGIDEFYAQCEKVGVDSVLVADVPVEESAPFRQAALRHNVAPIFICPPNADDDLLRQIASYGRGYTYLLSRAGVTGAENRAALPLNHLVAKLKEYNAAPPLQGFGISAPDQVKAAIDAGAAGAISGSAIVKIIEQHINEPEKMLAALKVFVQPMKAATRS
T5 sequence (P0A853 whole entry): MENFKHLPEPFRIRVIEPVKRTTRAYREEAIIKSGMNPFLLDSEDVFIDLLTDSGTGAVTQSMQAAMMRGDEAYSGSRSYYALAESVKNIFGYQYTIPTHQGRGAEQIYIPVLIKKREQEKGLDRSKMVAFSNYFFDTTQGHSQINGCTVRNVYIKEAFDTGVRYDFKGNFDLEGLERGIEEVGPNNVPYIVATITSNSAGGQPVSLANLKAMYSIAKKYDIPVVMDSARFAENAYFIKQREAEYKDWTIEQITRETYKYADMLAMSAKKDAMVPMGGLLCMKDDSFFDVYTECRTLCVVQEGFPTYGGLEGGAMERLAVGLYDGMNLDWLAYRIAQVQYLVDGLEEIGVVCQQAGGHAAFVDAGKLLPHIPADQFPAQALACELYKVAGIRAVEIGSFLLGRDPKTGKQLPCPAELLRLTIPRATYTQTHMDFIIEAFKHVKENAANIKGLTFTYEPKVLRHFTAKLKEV
T7 sequence (P0A879 whole entry): as the sequence (P0A879 whole entry) above
T7 sequence (P0A877 whole entry, further chain): as the sequence (P0A877 whole entry, further chain) above

| Compound | formation of tryptophan derivative and tryptamine (HPLC peaks) [1] | TDC2 (decarboxylation substrate screen) [2] | pkAAAD (decarboxylation substrate screen) [3] | SynAAAD (decarboxylation substrate screen) [4] | TDC1 (decarboxylation substrate screen) [5] | TnA (tryptophan product spot, TLC analysis) [6] | Relative rate (TrpBA) [7] | TrpBA (tryptophan product spot, TLC analysis) [8] |
| --- | --- | --- | --- | --- | --- | --- | --- | --- |
| 5-(Methoxycarbonylamino)indole [5-(methoxycarbonyl)amino-] | a second peak representing formation of tryptamine |  |  |  |  |  |  |  |
| NC(Cc1c[nH]c2cccc(F)c12)C(=O)O (racemic) [DL-4-fluoro-trp] |  | + | + | (+) | + |  |  |  |
| Cc1cccc2[nH]cc(CC(N)C(=O)O)c12 (racemic) [DL-4-methyl-trp] |  | + | − | + | + |  |  |  |
| NC(Cc1c[nH]c2ccc(F)cc12)C(=O)O (racemic) [DL-5-fluoro-trp] |  | (+) | − | (+) | + |  |  |  |
| Cc1ccc2[nH]cc(CC(N)C(=O)O)c2c1 (racemic) [DL-5-methyl-trp] |  | + | − | − | + |  |  |  |
| NC(Cc1c[nH]c2cc(F)ccc12)C(=O)O (racemic) [DL-6-fluoro-trp] |  | − | − | − | − |  |  |  |
| Cc1ccc2c(CC(N)C(=O)O)c[nH]c2c1 (racemic) [DL-6-methyl-trp] |  | + | − | (+) | + |  |  |  |
| Cc1cccc2c(CC(N)C(=O)O)c[nH]c12 (racemic) [DL-7-methyl-trp] |  | + | − | (+) | + |  |  |  |
| Cc1cc2ccccc2[nH]1 [2-methyl-, 2-methylindole] | a second peak representing formation of tryptamine |  |  |  |  | + | 20.6* % | − |
| COc1ccc2[nH]ccc2c1 [5-methoxy-] | a second peak representing formation of tryptamine |  |  |  |  | + | 19.0% | + |
| Cc1ccc2[nH]ccc2c1 [5CH3] |  |  |  |  |  |  | 0.55% |  |
| N[C@@H](Cc1c[nH]c2cccc(CO)c12)C(=O)O [L-4-(hydroxymethyl)-trp, 4-(Hydroxymethyl)-L-tryptophan] |  | + | (+) | + | + |  |  |  |
| COC(=O)Nc1ccc2[nH]cc(C[C@H](N)C(=O)O)c2c1 [L-5-(methoxycarbonyl)-amino-trp, 5-(Methoxycarbonyl)amino-L-tryptophan] |  | + | − | + | + |  |  |  |
| N[C@@H](Cc1c[nH]c2ccc(O)cc12)C(=O)O [L-5-hydroxy-trp, L-5-hydroxytryptophan, reference compound] |  |  | + | + | + |  |  |  |
